This is an account of results in patent publication US4256731A, “Oral Compositions” (priority 1979, dated 1981).

This assay in a line: in vitro stain assay: inhibition of alexidine dihydrochloride mediated stain on saliva-coated hydroxylapatite, 5% tannic acid as staining agent. The note with it: tested in triplicate, pH and acid:alexidine mole ratio as listed per formulation. As to the method: Methods: The substrate for the in vitro stain assay was a saliva-coated hydroxylapatite and the staining agent was 5% tannic acid. Each formulation was tested in triplicate.
For `N[C@@H](CC(=O)O)C(=O)O` [Aspartic Acid], the “% Inhibition of Alexidine . 2HCl Mediated Stain” value came to 34%.
Under `O=C(O)/C=C/C(=O)O` [Fumaric Acid] stands 44%; under `Nc1ccc(C(=O)O)cc1` [p-Aminobenzoic Acid], 22%; under `N[C@@H](CCC(=O)O)C(=O)O` [Glutamic Acid], 40%.
The value for `O=C(O)CC(O)(CC(=O)O)C(=O)O` [Citric Acid] was 32%.
